Data on 26 compounds can be found in ChEMBL document CHEMBL5108059, “Discovery of 2-Methyl-2-(4-(2-methyl-8-(1H-pyrrolo[2,3-b]pyridin-6-yl)-1H-naphtho[1,2-d]imidazol-1-yl)phenyl)propanenitrile as a Novel PI3K/mTOR Inhibitor with Enhanced Antitumor Efficacy In Vitro and In Vivo” (J Med Chem, 2022).

Experiment [1] concerns the target Serine/threonine-protein kinase mTOR (Homo sapiens, UniProt P42345). Briefly: Inhibition of N-terminal FLAG-tagged recombinant human mTOR (1362 to end residue) using ULight-4EBP1 peptide as substrate incubated for 30 mins in presence of ATP by Lance ultra assay.
In experiment [2] the target is T1, Phosphatidylinositol 4,5-bisphosphate 3-kinase catalytic subunit delta isoform (Homo sapiens, UniProt O00329).
T1 sequence (O00329 whole entry): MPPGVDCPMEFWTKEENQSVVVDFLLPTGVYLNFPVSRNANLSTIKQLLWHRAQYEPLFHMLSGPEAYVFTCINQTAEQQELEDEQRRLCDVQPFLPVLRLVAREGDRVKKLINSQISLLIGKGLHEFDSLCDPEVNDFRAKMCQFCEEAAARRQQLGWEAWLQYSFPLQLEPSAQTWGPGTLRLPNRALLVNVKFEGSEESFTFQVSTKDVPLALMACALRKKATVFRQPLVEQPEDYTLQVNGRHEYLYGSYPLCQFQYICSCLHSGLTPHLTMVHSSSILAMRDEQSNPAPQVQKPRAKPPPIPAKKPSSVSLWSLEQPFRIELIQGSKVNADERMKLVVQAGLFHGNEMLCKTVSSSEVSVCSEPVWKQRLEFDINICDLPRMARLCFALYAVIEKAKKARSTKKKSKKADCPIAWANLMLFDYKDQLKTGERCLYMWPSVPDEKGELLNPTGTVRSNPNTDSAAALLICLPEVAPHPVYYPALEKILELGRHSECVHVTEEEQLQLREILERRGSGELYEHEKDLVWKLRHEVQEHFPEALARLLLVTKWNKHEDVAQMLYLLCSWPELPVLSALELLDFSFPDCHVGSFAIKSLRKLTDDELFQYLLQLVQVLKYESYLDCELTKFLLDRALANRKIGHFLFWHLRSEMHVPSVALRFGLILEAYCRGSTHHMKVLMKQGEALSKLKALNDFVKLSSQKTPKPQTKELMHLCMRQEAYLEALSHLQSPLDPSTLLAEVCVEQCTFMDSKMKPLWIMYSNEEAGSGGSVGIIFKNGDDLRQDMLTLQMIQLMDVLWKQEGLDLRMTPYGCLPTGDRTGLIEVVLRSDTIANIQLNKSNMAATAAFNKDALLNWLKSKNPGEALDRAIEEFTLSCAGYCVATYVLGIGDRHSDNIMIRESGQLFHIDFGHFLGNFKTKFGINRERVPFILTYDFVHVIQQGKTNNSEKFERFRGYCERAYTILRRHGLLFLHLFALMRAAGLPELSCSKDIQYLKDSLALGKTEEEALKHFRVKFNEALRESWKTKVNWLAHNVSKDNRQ
Briefly: Inhibition of PI3Kdelta (unknown origin) using PIP2 as substrate incubated for 2 hrs in presence of ATP by Kinase Glo luminescence assay.

The target in experiment [3] is Phosphatidylinositol 4,5-bisphosphate 3-kinase catalytic subunit alpha isoform (Homo sapiens, UniProt P42336). Briefly: Inhibition of PI3Kalpha (unknown origin) using PIP2 as substrate incubated for 1 hr in presence of ATP by Kinase Glo luminescence assay.
The test system of another experiment is HeLa. The experiment is described as follows: Antiproliferative activity against human HeLa cells assessed as inhibition of cell growth incubated for 48 to 72 hrs by MTT assay. It is filed as functional, cell-based.
For a further experiment, the system named is HCT-15. Briefly: Antiproliferative activity against human HCT-15 cells with PIK3CA mutation assessed as inhibition of cell growth incubated for 48 to 72 hrs by MTT assay. It is filed as functional, cell-based.
Another experiment has as its system NCI-H3122. The experiment is described as follows: Antiproliferative activity against human NCI-H3122 cells assessed as inhibition of cell growth incubated for 48 to 72 hrs by MTT assay. It is filed as functional, cell-based.
A further experiment relates to NCI-H446. Briefly: Antiproliferative activity against PTEN-null human NCI-H446 cells assessed as inhibition of cell growth incubated for 48 to 72 hrs by MTT assay. It is filed as functional, cell-based.
The test system of the next experiment is SW-620. Briefly: Antiproliferative activity against human SW620 cells assessed as inhibition of cell growth incubated for 48 to 72 hrs by MTT assay. In kind it is functional, cell-based.
In the next experiment the test system is HT-29. The experiment is described as follows: Antiproliferative activity against human HT-29 cells with PIK3CA mutation assessed as inhibition of cell growth incubated for 48 to 72 hrs by MTT assay. It is filed as functional, cell-based.

Chain of Phosphatidylinositol 4,5-bisphosphate 3-kinase catalytic subunit alpha isoform (P42336 whole entry, canonical isoform): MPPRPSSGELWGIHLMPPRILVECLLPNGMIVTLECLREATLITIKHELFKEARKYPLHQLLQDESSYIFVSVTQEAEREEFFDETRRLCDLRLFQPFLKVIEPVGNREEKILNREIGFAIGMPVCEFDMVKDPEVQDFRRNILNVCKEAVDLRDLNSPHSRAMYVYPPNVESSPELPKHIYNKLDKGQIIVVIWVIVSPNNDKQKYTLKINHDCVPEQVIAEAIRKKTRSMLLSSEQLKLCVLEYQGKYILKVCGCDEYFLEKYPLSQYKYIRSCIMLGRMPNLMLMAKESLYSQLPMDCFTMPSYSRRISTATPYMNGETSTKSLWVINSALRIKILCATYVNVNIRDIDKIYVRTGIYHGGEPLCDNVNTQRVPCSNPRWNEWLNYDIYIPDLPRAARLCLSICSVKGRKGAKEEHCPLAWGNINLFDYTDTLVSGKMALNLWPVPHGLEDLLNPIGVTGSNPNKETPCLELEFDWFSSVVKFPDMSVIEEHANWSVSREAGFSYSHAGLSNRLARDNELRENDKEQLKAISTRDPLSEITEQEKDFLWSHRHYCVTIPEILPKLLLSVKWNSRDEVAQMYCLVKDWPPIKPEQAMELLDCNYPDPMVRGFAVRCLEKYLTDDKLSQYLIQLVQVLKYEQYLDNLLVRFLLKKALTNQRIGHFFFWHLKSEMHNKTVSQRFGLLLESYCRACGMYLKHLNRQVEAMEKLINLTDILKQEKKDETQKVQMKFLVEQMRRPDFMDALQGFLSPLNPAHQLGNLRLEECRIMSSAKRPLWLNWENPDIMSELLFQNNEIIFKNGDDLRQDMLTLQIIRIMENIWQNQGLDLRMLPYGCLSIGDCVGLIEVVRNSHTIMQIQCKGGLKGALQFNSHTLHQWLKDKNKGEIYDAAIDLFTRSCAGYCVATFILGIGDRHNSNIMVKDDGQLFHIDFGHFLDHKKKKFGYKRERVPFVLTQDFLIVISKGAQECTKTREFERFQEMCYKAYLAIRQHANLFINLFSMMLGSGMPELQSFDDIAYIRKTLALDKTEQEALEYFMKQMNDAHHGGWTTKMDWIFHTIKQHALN

For `Cc1nc2cnc3ccc(-c4cnc5[nH]ccc5c4)cc3c2n1C1CC1`, the IC50 is over 1000 nM in [1], 814 nM in experiment [2] and 501 nM in experiment [3].
For the compound `Cc1nc2cnc3ccc(-c4cnc(N5CCOCC5)nc4)cc3c2n1-c1ccc(F)cc1`, the IC50 in [1] was 596 nM; in experiment [2], over 1000 nM; in experiment [3], 463 nM.
The matching figures for `Cc1nc2cnc3ccc(-c4ccc(Cl)cc4)cc3c2n1-c1ccc(F)cc1`: over 1000 nM, over 1000 nM and 569 nM.
Turning to `Cc1nc2cnc3ccc(-c4cnc5[nH]ccc5c4)cc3c2n1-c1ccc(C(C)(C)C#N)cc1`, the IC50 in the experiment on HeLa worked out at 190 nM; with HCT-15, 290 nM; with NCI-H3122, 370 nM; in the experiment on NCI-H446, 1080 nM; in [1] it was 29.1 nM; in experiment [2], 21.7 nM. Moreover, the IC50 with SW-620 came to 230 nM; in experiment [3], 12.5 nM; in the experiment on HT-29, 310 nM.
Regarding `Cc1nc2cnc3ccc(-c4ccc(C#N)cc4)cc3c2n1-c1ccc(F)cc1`, the results for the IC50 in [1], in experiment [2] and in experiment [3] were over 1000 nM, 513 nM and 352 nM, respectively.
`Cc1nc2cnc3ccc(-c4ccc5ccccc5c4)cc3c2n1-c1ccc(F)cc1`: the IC50 in the experiment with HeLa stood at 16800 nM; in the experiment with HCT-15, 9750 nM; in the experiment with NCI-H3122 it was 8950 nM; in the experiment with NCI-H446, 12200 nM; in experiment [1] it was 190 nM; in experiment [2], 202 nM. The concentration for half-maximal inhibition (IC50) with SW-620 came out at 13700 nM; in experiment [3] it was 148 nM; in the experiment with HT-29, 3140 nM.
`Cc1nc2cnc3ccc(-c4cnc5[nH]ccc5c4)cc3c2n1CC1CCOC1` (stereo unspecified): the IC50 was 392 nM in experiment [1], 450 nM in experiment [2] and 365 nM in experiment [3].
With `Cc1nc2cnc3ccc(-c4cnc5[nH]ccc5c4)cc3c2n1[C@H](C)c1ccc(F)cc1`, the IC50 in the experiment on HeLa stood at 3940 nM; in the experiment with HCT-15 it was 1170 nM; with NCI-H3122, 2050 nM; in the experiment on NCI-H446, 3970 nM; in experiment [1], 90.2 nM; in experiment [2] it was 184 nM. Besides, the IC50 came out at 1740 nM with SW-620, 151 nM in experiment [3] and 1380 nM in the experiment with HT-29.
As for `Cc1nc2cnc3ccc(-c4cnn(C)c4)cc3c2n1-c1ccc(F)cc1`, the IC50 in experiment [1] was over 1000 nM; in experiment [2], over 1000 nM; in [3], 672 nM.
In the case of `COc1ccc(-c2ccc3ncc4nc(C)n(-c5ccc(F)cc5)c4c3c2)cc1`, the half-maximal inhibitory concentration (IC50) in experiment [1] was over 1000 nM; in experiment [2] it was over 1000 nM; in experiment [3] it was 321 nM.
Consider `Cc1nc2cnc3ccc(-c4ccc(C(F)(F)F)cc4)cc3c2n1-c1ccc(F)cc1`, for which the IC50 is over 1000 nM in experiment [1], over 1000 nM in [2] and 507 nM in experiment [3].
Regarding `Cc1nc2cnc3ccc(-c4cnc5[nH]ccc5c4)cc3c2n1CC1CCOCC1`, the 50% inhibitory concentration (IC50) in [1] worked out at 415 nM; in experiment [2], 218 nM; in experiment [3], 307 nM.
Consider `Oc1cccc(-c2nc(N3CCOCC3)c3oc4ncccc4c3n2)c1` [PI-103], for which the IC50 with HeLa stood at 3720 nM; with HCT-15, 1760 nM; in the experiment with NCI-H3122, 2510 nM; in the experiment on NCI-H446 it was 2160 nM; in the experiment on SW-620 it was 1070 nM; in the experiment on HT-29, 1310 nM.
Take `CNC(=O)c1ccc(-c2ccc3ncc4nc(C)n(-c5ccc(F)cc5)c4c3c2)cc1`: the half-maximal inhibitory concentration (IC50) was over 20000 nM in the experiment with HeLa; 12700 nM with HCT-15; over 20000 nM in the experiment on NCI-H3122; over 20000 nM in the experiment on NCI-H446; 157 nM in experiment [1]; 133 nM in experiment [2]. Moreover, the half-inhibitory concentration (IC50) with SW-620 is over 20000 nM; in experiment [3], 195 nM; in the experiment on HT-29, 9890 nM.
Consider `Cc1ccc(-c2ccc3ncc4nc(C)n(-c5ccc(F)cc5)c4c3c2)cc1`, for which the IC50 in experiment [1] is over 1000 nM; in experiment [2] it was 579 nM; in experiment [3], 357 nM.
Turning to `Cc1nc2cnc3ccc(-c4ccc(O)cc4)cc3c2n1-c1ccc(F)cc1`, the IC50 with HeLa worked out at 2160 nM; in the experiment on HCT-15, 2750 nM; with NCI-H3122, 3730 nM; with NCI-H446 it was 7820 nM; in experiment [1], 244 nM; in experiment [2], 132 nM. Besides, the figures for the IC50 (with SW-620; in experiment [3]; with HT-29) were 3620 nM, 89.2 nM and 3360 nM, respectively.
Turning to `Cc1nc2cnc3ccc(-c4cnc5[nH]ccc5c4)cc3c2n1[C@@H](C)c1ccccc1`, the IC50 with HeLa was 1620 nM; in the experiment with HCT-15, 1520 nM; in the experiment with NCI-H3122, 2150 nM; with NCI-H446, 3410 nM; in experiment [1], 78.1 nM; in [2], 104 nM. Besides, the IC50 with SW-620 is 1050 nM; in experiment [3] it was 54.1 nM; with HT-29, 1610 nM.
On to `Cc1nc2cnc3ccc(-c4cnc5[nH]ccc5c4)cc3c2n1-c1ccc(C(F)(F)F)cc1`, for which the IC50 in the experiment on HeLa was 1080 nM; in the experiment with HCT-15 it was 970 nM; in the experiment on NCI-H3122 it was 1030 nM; with NCI-H446, 1390 nM; in experiment [1], 109 nM; in [2], 66.3 nM. Also, the 50% inhibitory concentration (IC50) turned out to be 1160 nM with SW-620, 47.1 nM in [3] and 1250 nM with HT-29.
Consider `Cc1nc2cnc3ccc(-c4cnc(N)nc4)cc3c2n1-c1ccc(F)cc1`, for which the IC50 with HeLa came out at 2710 nM; in the experiment on HCT-15 it was 1970 nM; with NCI-H3122, 5390 nM; in the experiment on NCI-H446 it was 4160 nM; in experiment [1], 62.1 nM; in [2], 30.4 nM. The IC50 in the experiment on SW-620 came out at 1930 nM; in experiment [3] it was 36.7 nM; with HT-29, 1320 nM.
`Cc1nc2cnc3ccc(-c4cnc5[nH]ccc5c4)cc3c2n1C`: the IC50 in [1] is 679 nM; in experiment [2], over 1000 nM; in experiment [3], 472 nM.
Regarding `Cc1noc(C)c1-c1ccc2ncc3nc(C)n(-c4ccc(F)cc4)c3c2c1`, the figures for the IC50 in [1], in [2] and in [3] were over 1000 nM, 852 nM and over 1000 nM, respectively.
`Cc1nc2cnc3ccc(-c4cnc5[nH]ccc5c4)cc3c2n1-c1ccccc1`: the half-inhibitory concentration (IC50) with HeLa worked out at 3640 nM; in the experiment with HCT-15 it was 1940 nM; with NCI-H3122, 5610 nM; with NCI-H446, 4510 nM; in experiment [1], 73.9 nM; in experiment [2], 32.3 nM. Also, the IC50 in the experiment with SW-620 turned out to be 2910 nM; in experiment [3], 41 nM; with HT-29, 2310 nM.
With `Cc1nc2cnc3ccc(-c4ccc(F)cc4)cc3c2n1-c1ccc(F)cc1`, the IC50 in experiment [1] was 781 nM; in [2], over 1000 nM; in experiment [3], 487 nM.
As to `Cc1nc2cnc3ccc(-c4cnc5[nH]ccc5c4)cc3c2n1-c1ccc(CC#N)cc1`, the IC50 with HeLa turned out to be 2760 nM; in the experiment with HCT-15, 1790 nM; in the experiment on NCI-H3122, 5360 nM; in the experiment on NCI-H446, 4820 nM; in experiment [1], 84.9 nM; in experiment [2] it was 105 nM. The IC50 with SW-620 is 3210 nM; in experiment [3], 139 nM; with HT-29 it was 1150 nM.
Consider `Cc1nc2cnc3ccc(-c4cc(C(F)(F)F)cc(C(F)(F)F)c4)cc3c2n1-c1ccc(F)cc1`, for which the IC50 in experiment [1], in experiment [2] and in experiment [3] was over 1000 nM each time.
Turning to `CC(=O)c1ccc(-c2ccc3ncc4nc(C)n(-c5ccc(F)cc5)c4c3c2)cc1`, the IC50 in experiment [1] was 487 nM; in experiment [2], over 1000 nM; in experiment [3], 304 nM.
